Assay results published in patent publication US20120258980A1, “Antibacterial Agent for Drug-Resistant Bacteria, Method for Screening for Same, and Use of Same” (priority 2009, published 2012).
In brackets after ≈: the same amount, converted by molar mass. Counter-ions that a name gives are not always drawn. Like-named read-outs stand apart in the source and are kept apart here.

Tests used:
[1] = tested on: MRSA, CA-MRSA and MSSA of Staphylococcus aureus; assay: MIC measurement, Test Example 4 (MRSA, CA-MRSA and MSSA strains); format: cell-based; details: Staphylococcus aureus
Method: Each of the bacterial strains listed in Table 1-1 was shake-cultured at 37° C. overnight in 4 mL of a medium (Tryptical Soy Broth: TSB, product of Becton Dickinson and Company). FDA209P was used as a control.
After completion of culturing, the resultant culture was suspended in a cation-adjusted Mueller Hinton Broth (CAMHB, product of Becton Dickinson and Company). Then, the obtained bacterial culture was adjusted in absorbance with the CAMHB so that the absorbance at 578 nm of the bacterial culture was adjusted to 0.3 measured by an absorption spectrometer. In addition, the resultant bacterial culture was 500-fold diluted with the CAMHB.
Each of the 500-fold diluted, pre-cultured bacterial cultures was added at 50 μL/well to the CAMHB containing the quinolones and the nybomycins at various concentrations (50 μL/well), followed by statically culturing at 37° C. overnight.
After completion of culturing, the growth of the bacteria was visually determined based on turbidity to measure MIC in each bacterial strain.
Glycopeptides, imipenem, quinolones and nybomycins were studied for antibacterial activity against the bacterial strains listed in Table 2-1; i.e., MRSA, CA-MRSA and MSSA of Staphylococcus aureus.

[2] = tested on: VRSA clinical isolates; details: based on NARSA, cited from earlier work
[3] = ATCC 29213 / MRSA / MSSA, ATCC 29213, MSSA
[4] = FDA209P / MRSA / MSSA, FDA209P, MSSA
[5] = MRSA / MSSA / NCTC 8325, NCTC 8325, MSSA
[6] = MRSA / MSSA / USA300, USA300 FPR3757, CA-MRSA

SMILES | MIC [1, 3] [µg/mL] | MIC ([1]; COL, MRSA) [µg/mL] | MIC [1, 4] [µg/mL] | MIC ([1]; ISA12-1, MRSA) [µg/mL] | MIC ([1]; ISA12-2, MRSA) [µg/mL] | MIC ([1]; ISA35-1, MRSA) [µg/mL] | MIC ([1]; ISA37-1, MSSA) [µg/mL] | MIC ([1]; ISA49-1, MSSA) [µg/mL] | MIC ([1]; ISA51-1, MSSA) [µg/mL] | MIC ([1]; ISA56-3, MRSA) [µg/mL] | MIC ([1]; ISA58-1, MRSA) [µg/mL] | MIC ([1]; ISA62-1, MRSA) [µg/mL] | MIC ([1]; ISA73-1, MSSA) [µg/mL] | MIC ([1]; KBSA32, MRSA) [µg/mL] | MIC ([1]; KBSA34, MRSA) [µg/mL] | MIC ([1]; KBSA72, MRSA) [µg/mL] | MIC ([1]; KBSA96, MRSA) [µg/mL] | MIC ([1]; KBSA171, MRSA) [µg/mL] | MIC ([1]; KSA24, MRSA) [µg/mL] | MIC ([1]; KSA31, MRSA) [µg/mL] | further results
C[C@@H]1CN(c2c(F)c(N)c3c(=O)c(C(=O)O)cn(C4CC4)c3c2F)C[C@H](C)N1 [SPFX, sparfloxacin] | ≤ 0.063 | 0.25 (≈ 0.637 µM) | ≤ 0.063 | 0.125 (≈ 0.319 µM) | 0.125 (≈ 0.319 µM) | 0.125 (≈ 0.319 µM) | 0.125 (≈ 0.319 µM) | ≤ 0.063 | 0.125 (≈ 0.319 µM) | 0.125 (≈ 0.319 µM) | 0.5 (≈ 1.27 µM) | ≤ 0.063 | ≤ 0.063 | ≤ 0.063 | 0.125 (≈ 0.319 µM) | 128 (≈ 326 µM) | 16 (≈ 40.8 µM) | 16 (≈ 40.8 µM) | 16 (≈ 40.8 µM) | 8 (≈ 20.4 µM) | MIC ([1]; KSA36, MRSA): 128 µg/mL (≈ 326 µM); MIC [1, 5]: 0.125 µg/mL (≈ 0.319 µM); MIC [1, 6]: 8 µg/mL (≈ 20.4 µM); MIC ([1]; MW2, CA-MRSA): ≤ 0.063 µg/mL; MIC ([1]; N315, MRSA): ≤ 0.063 µg/mL
NC1CCN(c2nc3c(cc2F)c(=O)c(C(=O)O)cn3-c2ccc(F)cc2F)C1 (stereo not shown) [TFLX, tosufloxacin tosylate] | ≤ 0.063 | 0.125 | ≤ 0.063 | ≤ 0.063 | ≤ 0.063 | 0.25 | ≤ 0.063 | ≤ 0.063 | ≤ 0.063 | ≤ 0.063 | 0.5 | ≤ 0.063 | ≤ 0.063 | ≤ 0.063 | ≤ 0.063 | > 128 | 16 | 8 | 8 | 4 | MIC ([1]; KSA36, MRSA): > 128 µg/mL; MIC [1, 5]: ≤ 0.063 µg/mL; MIC [1, 6]: 16 µg/mL; MIC ([1]; MW2, CA-MRSA): ≤ 0.063 µg/mL; MIC ([1]; N315, MRSA): ≤ 0.063 µg/mL
CN[C@H](CC(C)C)C(=O)N[C@H]1C(=O)N[C@@H](CC(N)=O)C(=O)N[C@H]2C(=O)N[C@H]3C(=O)N[C@H](C(=O)N[C@H](C(=O)O)c4cc(O)cc(O)c4-c4cc3ccc4O)[C@H](O)c3ccc(c(Cl)c3)Oc3cc2cc(c3O[C@@H]2O[C@H](CO)[C@@H](O)[C@H](O)[C@H]2O[C@H]2C[C@](C)(N)[C@H](O)[C@H](C)O2)Oc2ccc(cc2Cl)[C@H]1O [VCM, vancomycin] | 0.5 (≈ 0.345 µM) | 0.5 (≈ 0.345 µM) | 0.5 (≈ 0.345 µM) | 0.5 (≈ 0.345 µM) | 0.5 (≈ 0.345 µM) | 1 (≈ 0.69 µM) | 1 (≈ 0.69 µM) | 1 (≈ 0.69 µM) | 1 (≈ 0.69 µM) | 2 (≈ 1.38 µM) | 1 (≈ 0.69 µM) | 1 (≈ 0.69 µM) | 1 (≈ 0.69 µM) | 0.5 (≈ 0.345 µM) | 1 (≈ 0.69 µM) | 1 (≈ 0.69 µM) | 1 (≈ 0.69 µM) | 1 (≈ 0.69 µM) | 1 (≈ 0.69 µM) | 1 (≈ 0.69 µM) | MIC ([1]; KSA36, MRSA): 1 µg/mL (≈ 0.69 µM); MIC [1, 5]: 1 µg/mL (≈ 0.69 µM); MIC [1, 6]: 1 µg/mL (≈ 0.69 µM); MIC ([1]; MW2, CA-MRSA): 0.5 µg/mL (≈ 0.345 µM); MIC ([1]; N315, MRSA): 0.5 µg/mL (≈ 0.345 µM); MIC ([2]; VRS1, VRSA, Michigan): >256 µg/mL; MIC ([2]; VRS2, VRSA, Pennsylvania): 64 µg/mL (≈ 44.2 µM); MIC ([2]; VRS3, VRSA, New York): >32 µg/mL; MIC ([2]; VRS4, VRSA, New York): >32 µg/mL; MIC ([2]; VRS5, VRSA, Michigan): >256 µg/mL; MIC ([2]; VRS6, VRSA, Michigan): >256 µg/mL; MIC ([2]; VRS7, VRSA, Michigan): >256 µg/mL
